Some test systems named below: SF-268 CNS; SW-620 colon; OVCAR-3 ovarian; NCI-H226 lung.
What all share (assay): NCI tumour cell line growth inhibition, 48 h

Molecules are shown by their SMILES.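 Growth conditions: 96-well plates. Treatment: test compound, 48 hours, 5 concentrations. Analysis: linear interpolation between bracketing concentrations; unreached endpoints set to highest concentration. Here, GI50 denotes the concentration required for 50% inhibition of growth. At the TGI there is no net growth.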

With `O=C1/C(=N/O)Cc2c(Br)ccc(Br)c21`, the TGI with SF-268 CNS is over 100 µM; in the assay on SW-620 colon, over 100 µM; in the assay with OVCAR-3 ovarian, 70.3 µM; in the assay with NCI-H226 lung, over 100 µM.

As for `NC(N)=NCCC[C@H](N)C(=O)NCC(=O)N[C@@H](CC(=O)O)c1ncc(NC(=O)C(F)(F)F)o1`, the TGI in the assay on SF-268 CNS, with SW-620 colon, in the assay on OVCAR-3 ovarian and with NCI-H226 lung was over 25 µM in each case.

Consider `CCOC(=O)N/N=C(/N)c1cccc([N+](=O)[O-])c1`, for which the TGI in the assay on SF-268 CNS, with SW-620 colon and in the assay on OVCAR-3 ovarian was over 100 µM throughout.

As for `C(=Nc1ccc(-c2nc3ccccc3[nH]2)cc1)c1cccs1`, the TGI in the assay with SF-268 CNS, in the assay on SW-620 colon, in the assay with OVCAR-3 ovarian and in the assay on NCI-H226 lung was over 100 µM each time.

Turning to `CC1(C)NC2C(=O)c3c([nH]c4ccccc34)[C@]3(C)CCC1CC23` (stereo partly specified), the TGI in the assay with SF-268 CNS, in the assay on SW-620 colon, with OVCAR-3 ovarian and in the assay with NCI-H226 lung was over 100 µM each time.

Consider `O=C1C(CN2CCCCC2)CCC1CN1CCCCC1` (stereo unspecified), for which the TGI in the assay with SF-268 CNS is over 74.8 µM; in the assay on SW-620 colon, 16 µM; in the assay with OVCAR-3 ovarian it was 26.5 µM; in the assay on NCI-H226 lung, over 100 µM.

Regarding `COc1cc(CNCc2cc(OC)c(OC)c(OC)c2)cc(OC)c1OC`, the TGI in the assay on SF-268 CNS, with SW-620 colon, in the assay with OVCAR-3 ovarian and with NCI-H226 lung was over 10 µM each time.

Consider `CCCCN1C(=O)N(c2ccc(OCC)cc2)C2N(CCCC)C1C(C)(C)C2(C)C` (stereo unspecified), for which the TGI with SF-268 CNS is 67.7 µM; with SW-620 colon, over 100 µM; in the assay on OVCAR-3 ovarian, 54 µM; with NCI-H226 lung it was 49.3 µM.

On to `Nc1nc(N)c2ncn(-c3ccc(Cl)cc3)c2n1`, for which the TGI with OVCAR-3 ovarian and with NCI-H226 lung was over 100 µM throughout.

Regarding `O=C1C=CC[C@H]2O[C@@H](COC(=O)Cc3ccccc3)C[C@H]2O1`, the TGI with SF-268 CNS was 56.2 µM; in the assay on SW-620 colon, over 100 µM; in the assay with OVCAR-3 ovarian, over 100 µM; with NCI-H226 lung, over 100 µM.

`CC1=NNC(N)=N/C1=C\C(Sc1ccc(Cl)cc1)c1ccc([N+](=O)[O-])cc1` (stereo unspecified): the TGI with SF-268 CNS was over 100 µM; with SW-620 colon it was over 100 µM; with NCI-H226 lung, 68.1 µM.

For `COCN(CCC1=CCCCC1)C(=O)OC`, the TGI with SF-268 CNS, with SW-620 colon and with OVCAR-3 ovarian was over 100 µM each time.

With `COc1cccc(-c2ccc3c4c2O[C@H]2C(=O)CC[C@@]5(O)[C@@H](C3)N(CC3CC3)CC[C@]425)c1`, the TGI with SF-268 CNS was found to be 40.3 µM; with SW-620 colon, 29.2 µM; in the assay on OVCAR-3 ovarian, 27.6 µM; in the assay on NCI-H226 lung, 26.8 µM.

Take `COc1cc(/C=C2/C[C@H]3[C@@H]4CC=C5C[C@@H](O)CC[C@]5(C)[C@H]4CC[C@]3(C)NC2=O)cc(OC)c1OC`: the TGI in the assay with SF-268 CNS is 23.4 µM; in the assay on SW-620 colon, over 100 µM; in the assay on OVCAR-3 ovarian, over 100 µM; with NCI-H226 lung it was over 58.5 µM.

As for `CCOC(=O)c1nc2ccc(C(F)(F)F)cc2nc1NCc1cc(OC)c(OC)c(OC)c1`, the TGI in the assay on SF-268 CNS, in the assay on SW-620 colon, in the assay with OVCAR-3 ovarian and in the assay on NCI-H226 lung was over 100 µM throughout.

`CCOc1cn(C2CC(O)C(CO)O2)c(=O)[nH]c1=O` (stereo unspecified): the TGI in the assay on SF-268 CNS, with SW-620 colon, in the assay with OVCAR-3 ovarian and with NCI-H226 lung was over 100 µM in each case.

In the case of `COC1=C(OC)C(=O)C(Cc2c(C)nc3sc(C)cn23)=C(C)C1=O`, the results for the TGI in the assay with SF-268 CNS, with SW-620 colon and in the assay on OVCAR-3 ovarian were 35.7 µM, 51.6 µM and 35.6 µM, respectively.

For the compound `CCN(CC)C(=O)Cn1c(C)cc2ccccc21`, the TGI in the assay on SF-268 CNS, in the assay on SW-620 colon, in the assay on OVCAR-3 ovarian and in the assay with NCI-H226 lung was over 100 µM each time.

For the compound `Cc1cc(S(=O)(=O)N=C2N(Cc3ccccc3)CCN2Cc2ccccc2)c(S)cc1Cl`, the TGI in the assay on SF-268 CNS, in the assay with SW-620 colon, in the assay with OVCAR-3 ovarian and in the assay with NCI-H226 lung was over 100 µM in each case.

Take `CCN(CC)CCNc1nc2ccc([N+](=O)[O-])cc2[n+]([O-])n1`: the TGI in the assay with SF-268 CNS was over 100 µM; with SW-620 colon, 64.1 µM; in the assay with OVCAR-3 ovarian, over 100 µM; with NCI-H226 lung, over 100 µM.

Turning to `O=C(N/N=C/c1ccccc1)c1c(-c2cccnc2)cnc2ccccc12`, the TGI in the assay with SF-268 CNS, with SW-620 colon, with OVCAR-3 ovarian and with NCI-H226 lung was over 100 µM each time.

With `CC1OC(OC2C(O[C@H]3CC[C@@]4(C)C(=CC[C@H]5[C@@H]6C[C@@H]7O[C@]8(CC[C@@H](CO)CO8)[C@@H](C)[C@@H]7[C@@]6(C)CC[C@@H]54)C3)OC(CO)C(O)C2OC2OC(CO)C(O)C(O)C2O)C(O)C(O)C1O` (stereo partly specified), the TGI in the assay with SF-268 CNS was found to be 3.54 µM; in the assay with SW-620 colon it was 3.54 µM; in the assay on NCI-H226 lung, 3.79 µM.

As to `C[C@]12CCC(=O)O[C@H]1CCCCO2`, the TGI in the assay with SF-268 CNS, with SW-620 colon, with OVCAR-3 ovarian and with NCI-H226 lung was over 100 µM each time.

Consider `Cc1ccc(SCC(CF)OC(C)n2cnc3c(=O)[nH]c(N)nc32)cc1` (stereo unspecified), for which the TGI in the assay on SF-268 CNS, in the assay on SW-620 colon, in the assay on OVCAR-3 ovarian and in the assay with NCI-H226 lung was over 100 µM throughout.

`Cn1cc(NC(=O)c2cc(NC(=O)CN=C(N)N)cn2C)cc1C(=O)NCCC(=N)N`: the TGI in the assay on SF-268 CNS, with SW-620 colon, in the assay with OVCAR-3 ovarian and in the assay on NCI-H226 lung was over 100 µM each time.

Turning to `OCC(O)COCn1nncc1Cn1ncc2c(SCc3ccccc3)ncnc21` (stereo unspecified), the TGI in the assay on SF-268 CNS was 41.1 µM; with SW-620 colon, over 100 µM; in the assay with OVCAR-3 ovarian, over 100 µM.

`O=C(O)Cc1cccc2c(=O)c3ccccc3oc12`: the TGI with SF-268 CNS, in the assay on SW-620 colon, in the assay on OVCAR-3 ovarian and in the assay on NCI-H226 lung was over 100 µM each time.

Regarding `CNc1ccc(C(=O)CC(O)CCC(C)C2OC(=O)CC(O)CC(=O)CC(O)CC(O)CC(O)CC(O)CC3(O)CC(O)C(C(=O)OC)C(CC(O[C@@H]4O[C@H](C)[C@@H](O)[C@H](N)[C@@H]4O)/C=C/C=C/C=C/C=C/C=C/C=C/C=C/C2C)O3)cc1` (stereo partly specified), the results for the GI50 in the assay with SF-268 CNS, in the assay with SW-620 colon and with OVCAR-3 ovarian were 2.82 µM, 5.33 µM and 2.73 µM, respectively. For the same compound, the figures for the TGI with SF-268 CNS, in the assay on SW-620 colon and with OVCAR-3 ovarian were 7.46 µM, 40.5 µM and 6.26 µM, respectively.
